# Assay results taken from paper PMC10778198, “First-in-Human Dose-Escalation Study of the Novel Oral Depsipeptide Class I-Targeting HDAC Inhibitor Bocodepsin (OKI-179) in Patients with Advanced Solid Tumors” (Cancers, 2023).
# Where two headings read alike, the source gives them in different places.
# Columns and labels:
# [1] = plasma pharmacokinetics by LC-MS/MS in patients; assay type: in vivo, human; conditions: for Tmax: read-out: Tmax of OKI-006 (Free)
# Protocol: Blood samples were collected immediately prior to the first dose on cycle 1 and day 1, and then at 0.25, 0.5, 1, 2, 4, 8, and 24 h after taking OKI-179 on days 1 and 15. Additional samples were collected pre-dose and 2 and 4 h after OKI-179 administration on day 18 in later cohorts. Blood samples were stabilized with sodium fluoride and formic acid immediately after collection to arrest the additional conversion of the prodrug OKI-179 to OKI-006. Plasma was further stabilized using ascorbic acid prior to low-temperature storage.
# Plasma concentrations of OKI-179 and OKI-006 were analyzed using validated liquid chromatography-mass spectrometry (LC-MS/MS) (Quintara Discovery Inc., Hayward, CA, USA). OKI-006 contains a free thiol moiety that can reversibly react with endogenous molecules in the blood and tissue, resulting in “bound” OKI-006. The unreacted OKI-006 is considered “free”. As bound OKI-006 can reversibly convert to free OKI-006 in vivo, both the free and “total” (free plus bound) concentrations of OKI-006 are considered pharmacologically relevant and were therefore quantified as part of this study. Bioanalytically, the total OKI-006 was measured by chemically converting all bound OKI-006 to free OKI-006 prior to analysis using the free OKI-006 bioanalytical method.
# The AUClast was calculated from time zero to the time of the last quantifiable concentration for OKI-179, free OKI-006, and total OKI-006.
# HDAC1 = system: HDAC1; design: method as in PMID 34965958; conditions: cell-free; cited from earlier work
# HDAC2 = system: HDAC2; design: method as in PMID 34965958; conditions: cell-free; cited from earlier work
# HDAC3 = system: HDAC3; design: method as in PMID 34965958; conditions: cell-free; cited from earlier work
# HDAC8 = system: HDAC8; design: method as in PMID 34965958; conditions: cell-free; cited from earlier work
# Class IIa HDACs = system: Class IIa HDACs; design: method as in PMID 34965958; conditions: cited from earlier work
# [2] = OKI-179 300-mg 5:2, Cycle 1 Day 1, geometric mean
# [3] = OKI-179 300-mg 5:2, Cycle 1 Day 15, geometric mean
smiles,measurement,setting,value
CC(C)[C@@H]1NC(=O)C(C)(C)NC(=O)c2csc(n2)CNC(=O)C[C@@H](/C=C/CCS)OC1=O [OKI-006],AUClast of OKI-006 (Free),[1]; [2],2790 ng·h/mL
same,"MRAUC, OKI-006 (Free) to OKI-179 metabolite ratio based on AUClast",[1]; [2],13.3
same,AUClast of OKI-006 (Free),[1]; [3],3180 ng·h/mL
same,Cmax of OKI-006 (Free),[1]; [3],2220 ng/mL
same,"MRAUC, OKI-006 (Free) to OKI-179 metabolite ratio based on AUClast",[1]; [3],10.3
same,Cmax and AUC versus preclinical threshold for efficacy,[1]; OKI-179 doses of 200 mg or greater,exceeded the preclinical threshold for efficacy
same,Tmax,"[1]; human, plasma, oral, 300 mg, OKI-179 300-mg 5:2, Cycle 1 Day 1, median",41.5 min
same,Tmax,"[1]; human, plasma, oral, 300 mg, OKI-179 300-mg 5:2, Cycle 1 Day 15, median",56 min
same,half-life,"[1]; human, plasma, oral, 300 mg, OKI-179 300-mg 5:2, Cycle 1 Day 15, median, read-out: t1/2 of OKI-006 (Free) (converted)",206 min
same,IC50,HDAC1,1.2 nM
same,IC50,HDAC2,2.4 nM
same,IC50,HDAC3,2 nM
same,IC50,HDAC8,47 nM
same,IC50,Class IIa HDACs,> 1000 nM
